From US11384118B2, “CAR-T cells targeting glioma stem cells for the treatment of glioblastoma multiforme” (H. Lee Moffitt Cancer Center and Research Institute, Inc., priority 2018, dated 2022)
“Also recorded” adds a separate entry of the source. Ends that are not written are not given here.

How the values were obtained:
[1] = system: patient-derived glioma stem cells; test: IFNG release assay following overnight coculture of CAR-T cells with GSC; type: cell-based, human; conditions: GSC vs DGC of same patient, H2110 and media negative controls
Description: Capitalizing on the unique ability of peptides EYA and VAV to bind to GSC, a series of chimeric antigen receptors (CARs) were designed that display a peptide derived from the EYA and VAV sequences, arranged in tandem, at the N-terminus of the CAR molecule. The role of the tandem peptides in the N-terminus of the CAR is to detect GSC, which in turn will activate the T cell through the CD3ζ domain in the C-terminus. Most CARs utilize antibody-derived molecules (Abate-Daga D, L et al. Hum Gene Ther. 2014 25(12):1003-12), or natural ligands (Brown C E, et al. N Engl J Med. 2016 375(26):2561-9; Brown C E, et al. Clin Cancer Res. 2012 18(8):2199-209) to receptors expressed by target cells to perform this function. Seven CAR constructs were generated based on combinations of peptides EYA and VAV (VAV-EYA and EYA-VAV), and of VAV plus five additional peptides (termed 1-VAV, 2-VAV, 3-VAV, 4-VAV, and 5-VAV) identified in the biopanning assays (FIG. 7). CAR cDNA was cloned into a retroviral expression vector used for clinical CAR-T cell manufacture, called pMSGV1, and the resulting constructs were used to transduce human primary T cells. The expression of the CAR molecules was first analyzed by Western blot against the CD3ζ chain of the CAR. Six of the seven CAR designs were expressed in transduced cells (FIG. 8). […]

glioblastoma tissue = test: Fluorescent peptide staining of glioblastoma and normal brain tissue; type: binding, human; conditions: peptide conjugated with fluorescein
Experimental: Patient brain tissues were obtained from Cleveland Clinic Tissue Bank. Cells (GSC and DGC) or frozen-sectioned tissues (glioblastoma and normal brain) were fixed in 4% paraformaldehyde and permeabilized with 0.1% Triton X-100 and stained using following primary antibodies: EYA1 (Aviva System Biology, ARP32434_P050), SOX2 (R&D system, MAB2018), vWF (Abcam, ab68548), CD31 (Santa Cruz Biotechnology, sc-1506), MYC (Cell signaling, 5605), and SIX1 (Abcam, ab84329) primary antibodies were incubated overnight at 4° C., followed species appropriate secondary antibodies with incubation for 3.5 hours at room temperature. Nuclei were stained with DAPI, and slides were then mounted with FluorSave (Calbiochem, 345789). Images were taken using a Leica DM4000 uplight microscopy. For DAB staining, tissues were incubated with rabbit anti-EYA1 or anti-c-Myc antibody overnight at 4° C., followed goat anti-rabbit biotinylated secondary antibody with incubation for 3.5 hours at room temperature. After incubation with antibodies, tissues were stained using VECTASTAIN Elite ABC HRP Kit (VECTOR LABORATORIES, PK-6100) and DAB Peroxidase Substrate Kit (VECTOR LABORATORIES, SK-4100) according to the manufacturer's instructions. After counterstaining with 50% hematoxylin, images were taken. […]

[2] = system: glioblastoma xenografted into the subcutaneous flank; test: In vivo imaging after tail vein injection, subcutaneous flank xenograft; design: species or system NSG mice
Description: (§1) Cyanine 5.5-conjugated peptide AWEFYFP (SEQ ID NO:2) and control peptide GGGSGGG (SEQ ID NO:33) were synthesized by LifeTein, LCC. (Hillsborough, N.J., USA). GSCs were implanted into subcutaneously (5×10^5 cells) or intracranially (5×10^4 cells) into 4 weeks old NSG mice under a Cleveland Clinic Foundation Institutional Animal Care and Use Committee approved protocol. After 4 weeks, cyanine 5.5-conjugated peptides were delivered into the mice via intravenous injection. Signals from injected peptides were monitored by fluorescence channel of IVIS Spectrum CT In Vivo Imaging System (PerkinElmer, USA) for 72 hours.

[3] = system: intracranial glioma patient-derived xenografts; test: In vivo imaging after tail vein injection, intracranial xenograft; design: species or system NSG mice
Description: as §1

GSCs = test: Binding of Cy5.5-conjugated peptide to GSCs / GSC tumor sphere; design: species or system human; conditions: peptide conjugated with Cyanine 5.5
Experimental: Cells were dissociated to singles with TrypLE Express (Thermo Fisher Scientific) and recovered in Neurobasal medium at 37° C. for 1-2 hours. Before the incubation with primary antibodies, cells were blocked with 2% BSA in PBS for 30-50 minutes. Primary antibodies were treated at 4° C. for 40-90 minutes. Anti-EYA1 antibody (Aviva System Biology, ARP32434_P050), anti-IgG control antibody, 5(6)-carboxyfluorescein-conjugated peptide AWEFYFP, and cyanine 5.5-conjugated peptide AWEFYFP were used as primary antibodies. After washing with 1% BSA in PBS, cells were incubated with Alexa Fluor 488-conjugated goat anti-rabbit IgG antibody (Invitrogen, A11008) at 4° C. for 40 minutes. Unstained- or secondary antibody treated-cells without a primary antibody were used as negative controls. Labeled cells were analyzed by flow cytometry.

5-VAV: CAR with peptide #5 linked to peptide VAV (binding agent SEQ ID NO:27) (NWYWVYPGGGGSGGGGSGGGGSSSQPFWSGSTSGSGKPGSGEGSTKG) [Peptide 5-VAV]
IFNG release / recognition of GSC [1]: specific recognition of GSC (but not differentiated glioma cells, DGC, derived from the same patient)

AWEFYFP (also: carboxyfluorescein conjugate) [GBM-IC2, used fluorescein-conjugated for staining]
binding to glioblastoma tissue relative to normal brain (glioblastoma tissue): specifically bound to glioblastoma tissue, relative to normal brain; also recorded: preferential binding to glioblastoma tissue
binding to SOX2 expressing cells (co-staining with GSC marker SOX2) (glioblastoma tissue; double staining with anti-SOX2): greater binding of GBM-IC2 to SOX2 expressing cells; also recorded: co-staining with SOX2

GBM-IC2-Cy5.5: GBM-IC2 peptide conjugated with Cyanine 5.5, a near infrared marker (AWEFYFP; also: Cy5.5 conjugate)
earliest time of tumor binding after injection ([2]; flank xenograft): 20 min
tumor targeting by imaging, flank xenograft ([2]; in vivo and ex vivo): high specificity of binding to the tumor; also recorded: specific targeting of the tumor four hours after injection in a dose dependent manner
histological analysis of peptide signal in intracranial tumor ([3]; ex vivo brain sections): positive fluorescent signal in the intracranial tumor samples
tumor targeting by imaging, intracranial xenograft ([3]; tail vein injection, imaging 20 minutes post-injection, in vivo and ex vivo): strong specificity of binding of tumor in the intracranial cavity; also recorded: specific targeting of the intracranial tumor
penetration of the BBB ([3]; tail vein injection, intracranial xenograft): penetrate the BBB
binding to GSCs (GSCs): binding to GSCs in a concentration-dependent manner
binding to GSCs (GSCs; listed as GBM-IC2 conjugated with Cy5.5): preferential binding to GSC tumor sphere
